# Patent publication US12054498B2, “Heteroaromatic macrocyclic ether chemotherapeutic agents” (Nuvalent, Inc., priority 2020, dated 2024)
# Experiments:
# Assay type in all cases: cell-based
# [1] = tested on: TPM3-NTRK1-wt IC50 / primary target IC50 (e.g. CD74-ROS1-wt); experiment: TRKA selectivity in Ba/F3 cells (TRKA potency divided by primary target potency); settings: for TPM3-NTRK1-wt/CD74-ROS1-G2032R selectivity ratio: TRKA potency / CD74-ROS1-G2032R potency; for TPM3-NTRK1-wt/EML4-ALK-L1196M-G1202R selectivity ratio: TRKA potency / EML4-ALK-L1196M-G1202R potency; for TPM3-NTRK1-wt/EML4-ALK-wt selectivity ratio: TRKA potency / EML4-ALK-wt potency; for TPM3-NTRK1-wt/CD74-ROS1-wt selectivity ratio: TRKA potency / CD74-ROS1-wt potency
# Method: TRKA selectivity was calculated by dividing a compound's TRKA potency by its primary target potency (e.g. TPM3-NTRK1-wt IC50/CD74-ROS1-wt IC50). Compound selectivity can be interpreted by binning ratio values: bin A for very high selectivity, ratio >30-fold; bin B for high selectivity, ratio >10-fold; bin C for moderate selectivity, ratio ≥1; and bin D for low selectivity, ratio <1. […] (nd=not determined).
# [2] = molecular target: T1, Ba/F3 cells EML4-ALK L1196M/G1202R (variant 1) (Homo sapiens, UniProt Q9UM73, G1202R/L1196M); experiment: Ba/F3 cell proliferation assay, EML4-ALK L1196M/G1202R (variant 1); settings: 72 hours, CellTiter-Glo
# T1 construct: echinoderm microtubule-associated protein-like 4 (EML4) gene and the ALK tyrosine kinase domain; host or cells: Ba/F3 (RIKEN), retroviral pMSCV-puro; the other entry of the earlier key: EML4 (Q9HC35, Echinoderm microtubule-associated protein-like 4)
# From the text: (§1) Genes encoding CD74-ROS1 wild-type (wt), CD74-ROS1 G2032R, CD74-ROS1 S1986F, CD74-ROS1 L2026M, CD74-ROS1 D2033N, EML4-ALK wt (variant 1), EML4-ALK G1202R (variant 1), EML4-ALK L1196M/G1202R (variant 1), EML4-ALK G1202R/G1269A (variant 1), EML4-ALK G1202R/L1198F (variant 1), and TPM3-TRKA were synthesized at GeneRay, cloned into the retroviral construct pMSCV-puro (Biovector), and packaged into retroviral particles. The virus was used to infect Ba/F3 cells (RIKEN) at multiplicity of infection=1 for 1 day. Infected cells were rescued in media (RPMI-1640 with 10% fetal bovine serum and 1% streptomycin and penicillin) supplemented with mouse IL-3 (10 ng/mL) for 2 days, and stable cell lines were selected by IL-3 withdrawal and puromycin (0.8 μg/mL) for 7 days. Monoclones were selected by single-cell dilution in IL-3-free medium containing puromycin (0.8 μg/mL). Transformation of desired genes was confirmed by Sanger sequencing and western blot using the following antibodies: ROS1 (CST #3287), ALK (CST #3633), and pan-TRK (Abcam #76291).
# (§2) Cell Proliferation Assay Stable cells were plated at 1,000 cells/well (40 μL) in a 384-well plate for 1 day.
# (§3) Test compounds (40 nL) were then added in a 3-fold dilution series using the TECAN EVO200 liquid handler and incubated for 72 hours. Plates were equilibrated at room temperature for 15 minutes followed by addition of 40 μL CellTiter-Glo reagent (Promega).
# (§4) Luminescence was measured on a plate reader. Half-maximal inhibitory concentration (IC50) was calculated from percent inhibition and inhibitor concentration using four-parameter logistic regression. […] (nd=not determined).
# [3] = molecular target: T2, Ba/F3 cells CD74-ROS1 G2032R (Homo sapiens, UniProt P08922, G2032R); experiment: Ba/F3 cell proliferation assay, CD74-ROS1 G2032R; settings: 72 hours, CellTiter-Glo
# T2 construct: fusion of the C-terminus of ROS1 with the N-terminus of various partner proteins; host or cells: Ba/F3 (RIKEN), retroviral pMSCV-puro; the other entry of the earlier key: CD74 (P04233, HLA class II histocompatibility antigen gamma chain)
# Method: (§5) The virus was used to infect Ba/F3 cells (RIKEN) at multiplicity of infection=1 for 1 day. Infected cells were rescued in media (RPMI-1640 with 10% fetal bovine serum and 1% streptomycin and penicillin) supplemented with mouse IL-3 (10 ng/mL) for 2 days, and stable cell lines were selected by IL-3 withdrawal and puromycin (0.8 μg/mL) for 7 days. Monoclones were selected by single-cell dilution in IL-3-free medium containing puromycin (0.8 μg/mL).
# as §2, §3, §4
# [4] = molecular target: T3, Ba/F3 cells EML4-ALK wt (variant 1) (Homo sapiens, UniProt Q9UM73); experiment: Ba/F3 cell proliferation assay, EML4-ALK wt (variant 1); settings: 72 hours, CellTiter-Glo
# T3 construct: echinoderm microtubule-associated protein-like 4 (EML4) gene and the ALK tyrosine kinase domain; host or cells: Ba/F3 (RIKEN), retroviral pMSCV-puro; the other entry of the earlier key: EML4 (Q9HC35, Echinoderm microtubule-associated protein-like 4)
# From the text: as §1, §2, §3, §4
# Ba/F3 cells TPM3-TRKA = molecular target: T4, Ba/F3 cells TPM3-TRKA (Homo sapiens, UniProt P04629); experiment: Ba/F3 cell proliferation assay, TPM3-TRKA; settings: 72 hours, CellTiter-Glo, read-out: TPM3-NTRK1-wt IC50
# T4 construct: host or cells: Ba/F3 (RIKEN), retroviral pMSCV-puro; the other entry of the earlier key: TPM3 (P06753, Tropomyosin alpha-3 chain)
# From the text: as §1, §2, §3, §4
# [5] = molecular target: T5, Ba/F3 cells CD74-ROS1 wild-type (wt) (Homo sapiens, UniProt P08922); experiment: Ba/F3 cell proliferation assay, CD74-ROS1 wild-type; settings: 72 hours, CellTiter-Glo
# T5 construct: fusion of the C-terminus of ROS1 with the N-terminus of various partner proteins; host or cells: Ba/F3 (RIKEN), retroviral pMSCV-puro; the other entry of the earlier key: CD74 (P04233, HLA class II histocompatibility antigen gamma chain)
# Method: as §5, §2, §3, §4
# T4 sequence (P04629 510-796 limits assumed): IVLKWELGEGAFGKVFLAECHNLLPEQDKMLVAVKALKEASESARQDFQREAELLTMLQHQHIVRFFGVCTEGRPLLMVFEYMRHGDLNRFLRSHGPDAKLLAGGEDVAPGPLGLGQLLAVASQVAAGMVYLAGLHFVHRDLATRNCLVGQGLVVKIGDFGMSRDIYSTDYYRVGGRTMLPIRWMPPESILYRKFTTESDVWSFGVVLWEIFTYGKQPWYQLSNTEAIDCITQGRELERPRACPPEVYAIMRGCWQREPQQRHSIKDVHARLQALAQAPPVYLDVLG
# T3 sequence (Q9UM73 with tags, fused parts or gaps): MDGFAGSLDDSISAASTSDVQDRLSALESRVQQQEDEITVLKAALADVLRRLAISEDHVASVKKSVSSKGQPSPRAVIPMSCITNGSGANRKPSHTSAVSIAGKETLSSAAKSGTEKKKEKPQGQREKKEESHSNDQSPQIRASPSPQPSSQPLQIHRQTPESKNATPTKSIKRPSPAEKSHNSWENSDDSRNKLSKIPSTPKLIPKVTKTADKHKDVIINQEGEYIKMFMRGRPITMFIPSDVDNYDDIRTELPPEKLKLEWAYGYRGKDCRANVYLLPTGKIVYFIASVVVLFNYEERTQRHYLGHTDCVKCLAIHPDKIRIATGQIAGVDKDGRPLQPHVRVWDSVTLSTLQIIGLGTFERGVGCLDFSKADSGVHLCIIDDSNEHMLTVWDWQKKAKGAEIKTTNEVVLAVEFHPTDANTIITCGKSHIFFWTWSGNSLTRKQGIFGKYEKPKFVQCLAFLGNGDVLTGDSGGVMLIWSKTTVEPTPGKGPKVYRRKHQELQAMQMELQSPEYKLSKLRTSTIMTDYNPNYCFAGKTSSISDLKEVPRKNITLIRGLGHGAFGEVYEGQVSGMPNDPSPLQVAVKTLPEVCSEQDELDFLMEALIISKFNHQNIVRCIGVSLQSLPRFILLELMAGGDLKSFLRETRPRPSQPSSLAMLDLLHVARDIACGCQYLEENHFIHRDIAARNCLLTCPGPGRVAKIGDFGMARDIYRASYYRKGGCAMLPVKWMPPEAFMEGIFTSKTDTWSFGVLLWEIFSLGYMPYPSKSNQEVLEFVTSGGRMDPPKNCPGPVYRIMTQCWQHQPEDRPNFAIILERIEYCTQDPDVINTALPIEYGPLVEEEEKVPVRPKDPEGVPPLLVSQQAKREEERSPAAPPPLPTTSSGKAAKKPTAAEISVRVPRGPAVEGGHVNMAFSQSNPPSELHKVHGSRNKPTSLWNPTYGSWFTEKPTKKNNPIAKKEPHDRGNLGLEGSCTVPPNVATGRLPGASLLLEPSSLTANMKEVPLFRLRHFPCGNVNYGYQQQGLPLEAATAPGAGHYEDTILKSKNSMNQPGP
# T1 sequence (Q9UM73 with tags, fused parts or gaps L1196M/G1202R): as the sequence (Q9UM73 with tags, fused parts or gaps) above, with L635M, G641R counted along it
# T2 sequence (P08922 1883-2347 G2032R limits assumed): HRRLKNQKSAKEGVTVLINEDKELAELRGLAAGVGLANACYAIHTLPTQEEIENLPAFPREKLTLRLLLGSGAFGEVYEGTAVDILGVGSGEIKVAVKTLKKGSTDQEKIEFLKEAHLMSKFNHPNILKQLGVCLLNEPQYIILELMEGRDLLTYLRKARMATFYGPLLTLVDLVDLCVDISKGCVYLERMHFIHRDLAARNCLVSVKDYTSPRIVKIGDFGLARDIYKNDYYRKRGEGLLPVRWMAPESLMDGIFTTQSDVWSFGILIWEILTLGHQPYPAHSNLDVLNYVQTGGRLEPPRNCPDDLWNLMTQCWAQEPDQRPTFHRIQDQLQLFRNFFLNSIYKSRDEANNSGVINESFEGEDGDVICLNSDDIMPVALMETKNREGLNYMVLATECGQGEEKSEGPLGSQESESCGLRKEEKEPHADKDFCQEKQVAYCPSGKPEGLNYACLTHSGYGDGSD
# T5 sequence (P08922 1883-2347 limits assumed): as the sequence (P08922 1883-2347 G2032R limits assumed) above, with R150G counted along it
SMILES,TPM3-NTRK1-wt/CD74-ROS1-G2032R selectivity ratio [1],TPM3-NTRK1-wt/EML4-ALK-L1196M-G1202R selectivity ratio [1],TPM3-NTRK1-wt/EML4-ALK-wt selectivity ratio [1],IC50 [2] [nM],IC50 [3] [nM],IC50 [4] [nM],IC50 (Ba/F3 cells TPM3-TRKA) [nM],TPM3-NTRK1-wt/CD74-ROS1-wt selectivity ratio [1],IC50 [5] [nM]
"CCn1ncc2c1-c1cnc(N)c(c1)O[C@H](C)c1cc(F)ccc1-c1ncn(C)c1C2 [Example 6, (19R)-3-ethyl-16-fluoro-9,19-dimethyl-20-oxa-3,4,9,11,23-pentaazapentacyclo[19.3.1.0^2,^6.0^8,^12.0^13,^18]pentacosa-1(24),2(6),4,8(12),10,13,15,17,21(25),22-decaen-22-amine]","A (bin A for very high selectivity, ratio >30-fold)","C (bin C for moderate selectivity, ratio ≥1)","A (bin A for very high selectivity, ratio >30-fold)",0.1 to 50,0.1 to 50,0.1 to 50,50 to 500,–,–
"CCn1ncc2c1-c1cnc(N)c(c1)O[C@H](C)c1cc(F)ccc1-c1c(ncn1C)C2 [Example 11, (19R)-3-ethyl-16-fluoro-11,19-dimethyl-20-oxa-3,4,9,11,23-pentaazapentacyclo[19.3.1.0^2,^6.0^8,^12.0^13,^18]pentacosa-1(24),2(6),4,8(12),9,13,15,17,21(25),22-decaen-22-amine]","A (bin A for very high selectivity, ratio >30-fold)","B (bin B for high selectivity, ratio >10-fold)",–,50 to 500,0.1 to 50,–,> 500,–,–
"CCn1ncc2c1-c1cnc(N)c(c1)OCc1cc(F)ccc1-c1ccnn1C2 [Example 17, 3-ethyl-16-fluoro-20-oxa-3,4,8,9,23-pentaazapentacyclo[19.3.1.0^2,^6.0^8,^12.0^13,^18]pentacosa-1(24),2(6),4,9,11,13,15,17,21(25),22-decaen-22-amine]","A (bin A for very high selectivity, ratio >30-fold)","C (bin C for moderate selectivity, ratio ≥1)","B (bin B for high selectivity, ratio >10-fold)",> 500,50 to 500,50 to 500,> 500,"A (bin A for very high selectivity, ratio >30-fold)",0.1 to 50
"CCn1ncc2c1-c1cnc(N)c(c1)O[C@H](C)c1cc(F)ccc1-c1c(Cl)cnn1C2 [Example 27, (19R)-11-chloro-3-ethyl-16-fluoro-19-methyl-20-oxa-3,4,8,9,23-pentaazapentacyclo[19.3,1.0^2,^6.0^8,^12.0^13,^18]pentacosa-1(24),2(6),4,9,11,13,15,17,21(25),22-decaen-22-amine]","A (bin A for very high selectivity, ratio >30-fold)","C (bin C for moderate selectivity, ratio ≥1)","B (bin B for high selectivity, ratio >10-fold)",50 to 500,0.1 to 50,0.1 to 50,> 500,–,–
"CCc1onc2c1-c1cnc(N)c(c1)O[C@H](C)c1cc(F)ccc1-c1nn(C)nc1C2 [Example 31, (19R)-3ethyl-16-fluoro-10,19-dimethyl-4,20-dioxa-5,9,10,11,23-pentaazapentacyclo[19.3.1.0^2,^6.0^8,^12.0^13,^18]pentacosa-1(24),2,5,8,11,13,15,17,21(25),22-decaen-22-amine]","A (bin A for very high selectivity, ratio >30-fold)","C (bin C for moderate selectivity, ratio ≥1)",–,50 to 500,0.1 to 50,–,50 to 500,–,–
"CCn1nc(OC)c2c1-c1cnc(N)c(c1)O[C@H](C)c1cc(F)ccc1-c1cc(C)nn1C2 [Example 32, (19R)-3-ethyl-16-fluoro-5-methoxy-10,19-dimethyl-20-oxa-3,4,8,9,23-pentaazapentacyclo[19.3.1.0^2,^6.0^8,^12.0^13,^18]pentacosa-1(24),2(6),4,9,11,13,15,1 7,21(25),22-decaen-22-amine]","A (bin A for very high selectivity, ratio >30-fold)","C (bin C for moderate selectivity, ratio ≥1)","B (bin B for high selectivity, ratio >10-fold)",50 to 500,0.1 to 50,0.1 to 50,50 to 500,"A (bin A for very high selectivity, ratio >30-fold)",0.1 to 50
"C[C@H]1Oc2cc(cnc2N)-c2c(C#N)nn(C)c2Cc2ncsc2-c2ccc(F)cc21 [Example 57, (19R)-22-amino-16-fluoro-5,19-dimethyl-20-oxa-11-thia-4,5,9,23-tetraazapentacyclo[19.3.1.0^2,^6.0^8,^12.0^13,^18]pentacosa-1(24),2(6),3,8(12),9,13,15,17,21(25),22-decaene-3-carbonitrile]","A (bin A for very high selectivity, ratio >30-fold)","C (bin C for moderate selectivity, ratio ≥1)",–,50 to 500,0.1 to 50,–,> 500,–,–
"Cc1nc2c(s1)-c1ccc(F)cc1[C@@H](C)Oc1cc(cnc1N)-c1c(C#N)nn(C)c1C2 [Example 68, (19R)-22-amino-16-fluoro-5,10,19-trimethyl-20-oxa-11-thia-4,5,9,23-tetraazapentacyclo[19.3.1.0^2,^6.0^8,^12.0^13,^18]pentacosa-1(24),2(6),3,8(12),9,13,15,17,21(25),22-decaene-3-carbonitrile]","A (bin A for very high selectivity, ratio >30-fold)","C (bin C for moderate selectivity, ratio ≥1)",–,50 to 500,0.1 to 50,–,> 500,–,–
"Cc1nn(CC2CC2)c2c1Cc1nccnc1-c1ccc(F)cc1[C@@H](C)Oc1cc-2cnc1N [Example 77, (20R)-3-(cyclopropylmethyl)-17-fluoro-5,20-dimethyl-21-oxa-3,4,9,12,24-pentaazapentacyclo[20.3.1.0^2,^6.0^8,^13.0^14,^19]hexacosa-1(25),2(6),4,8(13),9,11,14,16,18,22(26),23-undecaen-23-amine]","A (bin A for very high selectivity, ratio >30-fold)","A (bin A for very high selectivity, ratio >30-fold)","A (bin A for very high selectivity, ratio >30-fold)",0.1 to 50,0.1 to 50,0.1 to 50,> 500,–,–
